Source: US12084419B2, “Cell metabolism modulating compounds and uses thereof” (CRESCENTA BIOSCIENCES, priority 2020, dated 2024)

Target: T1, His6 tagged human recombinant FABP4 (Homo sapiens, UniProt P15090)
T1 construct: purchased Cayman Chemicals 10009549
Test: FABP4 TR-FRET assay: displacement of BODIPY FL C12 fatty acid
Settings: triplicates, inhibition of BODIPY FL C12 binding; for inhibition at 1 µM: 1 μM compound; for inhibition at 10 µM: 10 μM compound
In short: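 TR-FRET with a Tb anti-His6 antibody donor and BODIPY FL C12 as acceptor; compounds came from 0.362 and 0.0362 mM DMSO stocks. Protein (83 nM) and antibody (49.6 nM) solutions were premixed 30 min on ice in 25 mM Tris pH 7.4 with γ-globulins, NP-40 and DTT. Incubation was 10 min at room temperature; inhibition came from the 520/615 nm ratio.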

T1 sequence (P15090 whole entry): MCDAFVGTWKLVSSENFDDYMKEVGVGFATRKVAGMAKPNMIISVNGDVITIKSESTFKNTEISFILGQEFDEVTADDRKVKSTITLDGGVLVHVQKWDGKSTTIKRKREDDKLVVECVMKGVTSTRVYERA

Row | Structure (SMILES) | inhibition at 1 µM [%] | inhibition at 10 µM [%]
1 | CCCCCCC1CCc2c(n(Cc3ccccc3C#N)c3c(C(=O)O)cccc23)C1 (centres unmarked) [9-[(2-cyanophenyl)methyl]-2-hexyl-2,3,4,9-tetrahydro-1H-carbazole-8-carboxylic acid] | 87.3 | 92.7
2 | CCCCCCC1CCc2c(n(Cc3ccccc3F)c3c(C(=O)O)cccc23)C1 (centres unmarked) [9-[(2-fluorophenyl)methyl]-2-hexyl-2,3,4,9-tetrahydro-1H-carbazole-8-carboxylic acid] | 81.8 | 84.9
3 | CCCCCOC1CCCc2c1n(Cc1cccc(C(N)=O)c1)c1c(C(=O)O)cccc21 (centres unmarked) [9-[(3-carbamoylphenyl)methyl]-1-(pentyloxy)-2,3,4,9-tetrahydro-1H-carbazole-8-carboxylic acid] | 81.9 | 100
4 | CCC1CCCc2c1n(Cc1cccc(C(N)=O)c1)c1c(C(=O)O)cccc21 (centres unmarked) [9-[(3-carbamoylphenyl)methyl]-1-ethyl-2,3,4,9-tetrahydro-1H-carbazole-8-carboxylic acid] | 90.3 | 95.9
5 | CCCOC1CCCc2c1n(Cc1cccc(C(N)=O)c1)c1c(C(=O)O)cccc21 (centres unmarked) [9-[(3-carbamoylphenyl)methyl]-1-propoxy-2,3,4,9-tetrahydro-1H-carbazole-8-carboxylic acid] | 57.6 | 92
6 | NC(=O)c1cccc(Cn2c3c(c4cccc(C(=O)O)c42)CCC(CCc2ccccc2)C3)c1 (centres unmarked) [9-[(3-carbamoylphenyl)methyl]-2-(2-phenylethyl)-2,3,4,9-tetrahydro-1H-carbazole-8-carboxylic acid] | 98.4 | 94.1
7 | CCC1CCc2c(n(Cc3cccc(C(N)=O)c3)c3c(C(=O)O)cccc23)C1 (centres unmarked) [9-[(3-carbamoylphenyl)methyl]-2-ethyl-2,3,4,9-tetrahydro-1H-carbazole-8-carboxylic acid] | 85.5 | 101
8 | CCCCCCC1CCc2c(n(Cc3cccc(C(N)=O)c3)c3c(C(=O)O)cccc23)C1 (centres unmarked) [9-[(3-carbamoylphenyl)methyl]-2-hexyl-2,3,4,9-tetrahydro-1H-carbazole-8-carboxylic acid] | 92.8 | 90.5
9 | CCCCCC1CCc2c(n(Cc3cccc(C(N)=O)c3)c3c(C(=O)O)cccc23)C1 (centres unmarked) [9-[(3-carbamoylphenyl)methyl]-2-pentyl-2,3,4,9-tetrahydro-1H-carbazole-8-carboxylic acid] | 75 | 67
10 | CCCC1CCc2c(n(Cc3cccc(C(N)=O)c3)c3c(C(=O)O)cccc23)C1 (centres unmarked) [9-[(3-carbamoylphenyl)methyl]-2-propyl-2,3,4,9-tetrahydro-1H-carbazole-8-carboxylic acid] | 83.6 | 88
11 | CCC1CCc2c(c3cccc(C(=O)O)c3n2Cc2cccc(C(N)=O)c2)C1 (centres unmarked) [9-[(3-carbamoylphenyl)methyl]-3-ethyl-2,3,4,9-tetrahydro-1H-carbazole-8-carboxylic acid] | 98.2 | 103
12 | CCCCCC1CCc2c(c3cccc(C(=O)O)c3n2Cc2cccc(C(N)=O)c2)C1 (centres unmarked) [9-[(3-carbamoylphenyl)methyl]-3-pentyl-2,3,4,9-tetrahydro-1H-carbazole-8-carboxylic acid] | 90.9 | 98.4
13 | CCCC1CCc2c(c3cccc(C(=O)O)c3n2Cc2cccc(C(N)=O)c2)C1 (centres unmarked) [9-[(3-carbamoylphenyl)methyl]-3-propyl-2,3,4,9-tetrahydro-1H-carbazole-8-carboxylic acid] | 87.3 | 99.2
14 | NC(=O)c1cccc(Cn2c3c(c4cccc(C(=O)O)c42)C(CCc2ccccc2)CCC3)c1 (centres unmarked) [9-[(3-carbamoylphenyl)methyl]-4-(2-phenylethyl)-2,3,4,9-tetrahydro-1H-carbazole-8-carboxylic acid] | 44.1 | 77.9
15 | CCC1CCCc2c1c1cccc(C(=O)O)c1n2Cc1cccc(C(N)=O)c1 (centres unmarked) [9-[(3-carbamoylphenyl)methyl]-4-ethyl-2,3,4,9-tetrahydro-1H-carbazole-8-carboxylic acid] | 87 | 102
16 | CCCCCC1CCCc2c1c1cccc(C(=O)O)c1n2Cc1cccc(C(N)=O)c1 (centres unmarked) [9-[(3-carbamoylphenyl)methyl]-4-pentyl-2,3,4,9-tetrahydro-1H-carbazole-8-carboxylic acid] | 42.6 | 84.4
17 | CCCC1CCCc2c1c1cccc(C(=O)O)c1n2Cc1cccc(C(N)=O)c1 (centres unmarked) [9-[(3-carbamoylphenyl)methyl]-4-propyl-2,3,4,9-tetrahydro-1H-carbazole-8-carboxylic acid] | 53.9 | 90
18 | CCC1CCCc2c1n(Cc1cccc(C(=O)O)c1)c1c(C(=O)O)cccc21 (centres unmarked) [9-[(3-carboxyphenyl)methyl]-1-ethyl-2,3,4,9-tetrahydro-1H-carbazole-8-carboxylic acid] | 39.6 | 78.5

Row | Structure (SMILES) | inhibition at 1 µM [%] | inhibition at 10 µM [%]
19 | CCC1CCc2c(n(Cc3cccc(C(=O)O)c3)c3c(C(=O)O)cccc23)C1 (centres unmarked) [9-[(3-carboxyphenyl)methyl]-2-ethyl-2,3,4,9-tetrahydro-1H-carbazole-8-carboxylic acid] | 23.5 | 69.2
20 | CCCCCCC1CCc2c(n(Cc3cccc(C(=O)O)c3)c3c(C(=O)O)cccc23)C1 (centres unmarked) [9-[(3-carboxyphenyl)methyl]-2-hexyl-2,3,4,9-tetrahydro-1H-carbazole-8-carboxylic acid] | 23.9 | 73
21 | CCC1CCCc2c1c1cccc(C(=O)O)c1n2Cc1cccc(C(=O)O)c1 (centres unmarked) [9-[(3-carboxyphenyl)methyl]-4-ethyl-2,3,4,9-tetrahydro-1H-carbazole-8-carboxylic acid] | 52.1 | 85.4
22 | CCCCCOC1CCCc2c1n(Cc1cccc(C#N)c1)c1c(C(=O)O)cccc21 (centres unmarked) [9-[(3-cyanophenyl)methyl]-1-(pentyloxy)-2,3,4,9-tetrahydro-1H-carbazole-8-carboxylic acid] | 7.56 | 63.3
23 | CCC1CCCc2c1n(Cc1cccc(C#N)c1)c1c(C(=O)O)cccc21 (centres unmarked) [9-[(3-cyanophenyl)methyl]-1-ethyl-2,3,4,9-tetrahydro-1H-carbazole-8-carboxylic acid] | 44.2 | 87.6
24 | N#Cc1cccc(Cn2c3c(c4cccc(C(=O)O)c42)CCC(CCc2ccccc2)C3)c1 (centres unmarked) [9-[(3-cyanophenyl)methyl]-2-(2-phenylethyl)-2,3,4,9-tetrahydro-1H-carbazole-8-carboxylic acid] |  | 92.3
25 | CCCCCCC1CCc2c(n(Cc3cccc(C#N)c3)c3c(C(=O)O)cccc23)C1 (centres unmarked) [9-[(3-cyanophenyl)methyl]-2-hexyl-2,3,4,9-tetrahydro-1H-carbazole-8-carboxylic acid] | 63.6 | 83.4
26 | CCCCCC1CCc2c(n(Cc3cccc(C#N)c3)c3c(C(=O)O)cccc23)C1 (centres unmarked) [9-[(3-cyanophenyl)methyl]-2-pentyl-2,3,4,9-tetrahydro-1H-carbazole-8-carboxylic acid] | 60.8 | 77.1
27 | CCCC1CCc2c(n(Cc3cccc(C#N)c3)c3c(C(=O)O)cccc23)C1 (centres unmarked) [9-[(3-cyanophenyl)methyl]-2-propyl-2,3,4,9-tetrahydro-1H-carbazole-8-carboxylic acid] | 55.6 | 81.4
28 | CCC1CCc2c(c3cccc(C(=O)O)c3n2Cc2cccc(C#N)c2)C1 (centres unmarked) [9-[(3-cyanophenyl)methyl]-3-ethyl-2,3,4,9-tetrahydro-1H-carbazole-8-carboxylic acid] | 45.8 | 90.3
29 | CCCCCC1CCc2c(c3cccc(C(=O)O)c3n2Cc2cccc(C#N)c2)C1 (centres unmarked) [9-[(3-cyanophenyl)methyl]-3-pentyl-2,3,4,9-tetrahydro-1H-carbazole-8-carboxylic acid] | 57.4 | 83.3
30 | CCCC1CCc2c(c3cccc(C(=O)O)c3n2Cc2cccc(C#N)c2)C1 (centres unmarked) [9-[(3-cyanophenyl)methyl]-3-propyl-2,3,4,9-tetrahydro-1H-carbazole-8-carboxylic acid] | 46.8 | 85.4
31 | N#Cc1cccc(Cn2c3c(c4cccc(C(=O)O)c42)C(CCc2ccccc2)CCC3)c1 (centres unmarked) [9-[(3-cyanophenyl)methyl]-4-(2-phenylethyl)-2,3,4,9-tetrahydro-1H-carbazole-8-carboxylic acid] | 31 | 53.4
32 | CCCCCC1CCCc2c1c1cccc(C(=O)O)c1n2Cc1cccc(C#N)c1 (centres unmarked) [9-[(3-cyanophenyl)methyl]-4-pentyl-2,3,4,9-tetrahydro-1H-carbazole-8-carboxylic acid] | 26.3 | 73.7
33 | CCCCCCC1CCc2c(n(Cc3ccc(C(N)=O)cc3)c3c(C(=O)O)cccc23)C1 (centres unmarked) [9-[(4-carbamoylphenyl)methyl]-2-hexyl-2,3,4,9-tetrahydro-1H-carbazole-8-carboxylic acid] | 87.3 | 89.3
34 | CCCCCCC1CCc2c(n(Cc3ccc(C#N)cc3)c3c(C(=O)O)cccc23)C1 (centres unmarked) [9-[(4-cyanophenyl)methyl]-2-hexyl-2,3,4,9-tetrahydro-1H-carbazole-8-carboxylic acid] | 39.7 | 78.9
35 | CCCCC1CCCCc2c1c1cccc(C(=O)O)c1n2Cc1cccc(C(N)=O)c1 (centres unmarked) [10-butyl-5-[(3-carbamoylphenyl)methyl]-5H,6H,7H,8H,9H,10H-cyclohepta[b]indole-4-carboxylic acid] | 63.3 | 87.9
36 | CCCCC1CCCCc2c1c1cccc(C(=O)O)c1n2Cc1cccc(C#N)c1 (centres unmarked) [10-butyl-5-[(3-cyanophenyl)methyl]-5H,6H,7H,8H,9H,10H-cyclohepta[b]indole-4-carboxylic acid] | 30.9 | 73.6
